Experimental findings from patent US10329286B2, “FXR (NR1H4) modulating compounds” (Gilead Sciences, Inc., priority 2016, dated 2019) are described below.

Assay [1] has as its target human FXR alpha ligand binding domain (Homo sapiens (Human), UniProt Q96RI1). The experiment in a line: FRET activity assay (LANCE; ligand mediated FXR-LBD / SRC-1 cofactor peptide interaction). Type of assay: biochemical. How it is done: Determination of a ligand mediated cofactor peptide interaction to quantify ligand binding to the nuclear receptor FXR was performed as follows.
Preparation of human FXR alpha ligand binding domain: The human FXRalpha LBD was expressed in E. coli strain BL21(DE3) as an N-terminally GST tagged fusion protein. The DNA encoding the FXR ligand binding domain was cloned into vector pDEST15 (Invitrogen). Expression was under control of an IPTG inducible T7 promoter. The amino acid boundaries of the ligand binding domain were amino acids 187-472 of Database entry NM_005123 (RefSeq).
Expression and purification of the FXR-LBD: An overnight preculture of a transformed E. coli strain was diluted 1:20 in LB-Ampicillin medium and grown at 30° C. to an optical density of OD600=0.4-0.6. Gene expression was then induced by addition of 0.5 mM IPTG. Cells were incubated an additional 6 h at 30° C., 180 rpm. Cells were collected by centrifugation (7000×g, 7 min, rt). Per liter of original cell culture, cells were resuspended in 10 mL lysis buffer (50 mM Glucose, 50 mM Tris pH 7.9, 1 mM EDTA and 4 mg/mL lysozyme) and left on ice for 30 min. Cells were then subjected to sonication and cell debris removed via centrifugation (22000×g, 30 min, 4° C.). Per 10 mL of supernatant 0.5 mL prewashed Glutathione 4B sepharose slurry (Qiagen) was added and the suspension kept slowly rotating for 1 h at 4° C. Glutathione 4B sepharose beads were pelleted by centrifugation (2000×g, 15 sec, 4° C.) and washed twice in wash buffer (25 mM Tris, 50 mM KCl, 4 mM MgCl2 and 1M NaCl). The pellet was resuspended in 3 mL elution buffer per liter of original culture (elution buffer: 20 mM Tris, 60 mM KCl, 5 mM MgCl2 and 80 mM glutathione added immediately prior to use as powder). The suspension was left rotating for 15 min at 4° C., the beads pelleted and eluted again with half the volume of elution buffer than the first time. The eluates were pooled and dialysed overnight in 20 mM Hepes buffer (pH 7.5) containing 60 mM KCl, 5 mM MgCl2 as well as 1 mM dithiothreitol and 10% (v/v) glycerol. The protein was analysed by SDS-Page.
The method measures the ability of putative ligands to modulate the interaction between the purified bacterial expressed FXR ligand binding domain (LBD) and a synthetic biotinylated peptide based on residues 676-700 of SRC-1 (LCD2, 676-700). The sequence of the peptide used was B-[…]-COOH (SEQ ID NO: 1) where the N-terminus was biotinylated (B). The ligand binding domain (LBD) of FXR was expressed as fusion protein with GST in BL-21 cells using the vector pDEST15. Cells were lysed by sonication, and the fusion proteins purified over glutathione sepharose (Pharmacia) according to the manufacturers instructions. For screening of compounds for their influence on the FXR-peptide interaction, the Perkin Elmer LANCE technology was applied. This method relies on the binding dependent energy transfer from a donor to an acceptor fluorophor attached to the binding partner of interest. For ease of handling and reduction of background from compound fluorescence LANCE technology makes use of generic fluorophore labels and time resolved detection.
Assays were done in a final volume of 25 μL in a 384 well plate, in a Tris-based buffer (20 mM Tris-HCl pH 7.5; 60 mM KCl, 5 mM MgCl2; 35 ng/μL BSA), containing 20-60 ng/well recombinantly expressed FXR-LBD fused to GST, 200-600 nM N-terminally biotinylated peptide, representing SRC1 aminoacids 676-700, 200 ng/well Streptavidin-x1APC conjugate (Prozyme) and 6-10 ng/well Eu W1024-antiGST (Perkin Elmer). DMSO content of the samples was kept at 1%. After generation of the assay mix and diluting the potentially FXR modulating ligands, the assay was equilibrated for 1 h in the dark at rt in FIA-plates black 384 well (Greiner). The LANCE signal was detected by a Perkin Elmer VICTOR2VTM Multilabel Counter. The results were visualized by plotting the ratio between the emitted light at 665 and 615 nm. […]
For orientation: Time-resolved FRET reads energy transfer from a long-lived donor to a nearby acceptor.

The target of assay [2] is FXR ligand binding domain (Homo sapiens (Human), UniProt Q96RI1). The experiment in a line: Mammalian one hybrid (M1H) Gal4 reporter gene assay in HEK293 cells. In kind it is cell-based. How it is done: Determination of a ligand mediated Gal4 promoter driven transactivation to quantify ligand binding mediated activation of FXR was performed as follows.
FXR ligand binding domain, sequence (Q96RI1 other isoform, or with tags, fused parts or gaps): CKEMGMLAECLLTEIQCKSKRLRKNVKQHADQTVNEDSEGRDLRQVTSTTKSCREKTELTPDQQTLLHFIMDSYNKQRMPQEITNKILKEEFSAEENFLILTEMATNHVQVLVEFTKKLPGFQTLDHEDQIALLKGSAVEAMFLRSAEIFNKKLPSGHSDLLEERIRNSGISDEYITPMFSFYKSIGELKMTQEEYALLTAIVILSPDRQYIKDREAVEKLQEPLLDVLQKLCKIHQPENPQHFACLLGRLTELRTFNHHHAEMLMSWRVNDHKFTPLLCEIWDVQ
The cDNA part encoding the FXR ligand binding domain was cloned into vector pCMV-BD (Stratagene) as a fusion to the yeast GAL4 DNA binding domain under the control of the CMV promoter. […] The plasmid pFR-Luc (Stratagene) was used as the reporter plasmid, containing a synthetic promoter with five tandem repeats of the yeast GAL4 binding sites, driving the expression of the Photinus pyralis (American firefly) luciferase gene as the reporter gene. In order to improve experimental accuracy the plasmid pRL-CMV (Promega) was cotransfected. pRL-CMV contains the constitutive CMV promoter, controlling the expression of the Renilla reniformis luciferase. All Gal4 reporter gene assays were done in HEK293 cells (obtained from DSMZ, Braunschweig, Germany) grown in MEM with L-Glutamine and Earle's BSS supplemented with 10% fetal bovine serum, 0.1 mM nonessential amino acids, 1 mM sodium pyruvate, and 100 units Penicilin/[…] per mL at 37° C. in 5% CO2. Medium and supplements were obtained from Invitrogen. For the assay, […] cells were plated per well in 96 well plates in 100 μL per well MEM without Phenol Red and L-Glutamine and with Earle's BSS supplemented with 10% charcoal/dextran treated FBS (HyClone, South Logan, Utah), 0.1 mM nonessential amino acids, 2 mM glutamine, 1 mM sodium pyruvate, and 100 units Penicilin/[…] per mL, incubated at 37° C. in 5% CO2. The following day the cells were >90% confluence. […] MEM with the same composition as used for plating cells was added 2-4 h after addition of transfection mixture. Then compound stocks, prediluted in MEM were added (final vehicle concentration not exceeding 0.1%). […] All experiments were done in triplicates.
In general terms: A reporter such as luciferase makes a cellular process visible.

Setting [3] is: GST-FXR-LBD, biotinylated SRC-1 peptide 676-700, read-out: FRET EC50.
Setting [4] is: Gal4-FXR-LBD luciferase reporter, HEK293 cells, 16 h, read-out: M1H EC50.

Like-named read-outs stand apart in the source and are kept apart here.

human FXR alpha ligand binding domain, sequence (Q96RI1 other isoform, or with tags, fused parts or gaps): as above

`O=C(O)c1cnc(N2CC(O)(c3ccc(OCc4c(-c5c(Cl)cccc5Cl)noc4C4CC4)cc3Cl)C2)c(F)c1` [Example 5, 6-(3-(2-chloro-4-((5-cyclopropyl-3-(2,6-dichlorophenyl)isoxazol-4-yl)methoxy)phenyl)-3-hydroxyazetidin-1-yl)-5-fluoronicotinic acid]: the EC50 (usually the concentration needed to bring the measured effect to its halfway point) in assay [1] (setting [3]) came out at 4.8 nM; in assay [2] (setting [4]) it was 4.5 nM.
`Cc1cc(C(=O)O)cnc1N1CC(O)(c2ccc(OCc3c(-c4c(Cl)cccc4Cl)noc3C3CC3)cc2Cl)C1` [Example 4, 6-(3-(2-chloro-4-((5-cyclopropyl-3-(2,6-dichlorophenyl)isoxazol-4-yl)methoxy)phenyl)-3-hydroxyazetidin-1-yl)-5-methylnicotinic acid]: the EC50 in assay [1] (setting [3]) is 3.9 nM; in assay [2] (setting [4]) it was 5.1 nM.
Take `O=C(O)c1ccc(N2CC(O)(c3ccc(OCc4c(-c5c(Cl)cccc5Cl)noc4C4CC4)cc3Cl)C2)nc1C(F)(F)F` [Example 6, 6-(3-(2-chloro-4-((5-cyclopropyl-3-(2,6-dichlorophenyl)isoxazol-4-yl)methoxy)phenyl)-3-hydroxyazetidin-1-yl)-2-(trifluoromethyl)nicotinic acid]: the EC50 stood at 3.1 nM in assay [1] (setting [3]) and 56 nM in assay [2] (setting [4]).
The like results for `O=C(O)c1ccnc(N2CC(O)(c3ccc(OCc4c(-c5c(Cl)cncc5Cl)noc4C4CC4)cc3Cl)C2)c1` [Comparative Compound 2, reference compound] were, in that order, 48 nM and 744 nM.
For `COc1cccc(OC)c1-c1noc(C2CC2)c1COc1ccc(C2(O)CN(c3ncc(C(=O)O)cc3F)C2)c(Cl)c1` [Example 8, 6-(3-(2-chloro-4-((5-cyclopropyl-3-(2,6-dimethoxyphenyl)isoxazol-4-yl)methoxy)phenyl)-3-hydroxyazetidin-1-yl)-5-fluoronicotinic acid] the same measures were 15 nM and 593 nM.
In the case of `O=C(O)c1ccnc(N2CC(O)(c3ccc(OCc4c(-c5c(Cl)cccc5Cl)noc4C4CC4)cc3Cl)C2)c1` [Comparative Compound 1, reference compound], the EC50 in assay [1] worked out at 14 nM; in assay [2] it was 774 nM.
On to `O=C(O)c1cnc(N2CC(O)(c3ccc(OCc4c(C5CC5)cnn4-c4c(Cl)cccc4Cl)cc3Cl)C2)c(F)c1` [Example 11, 6-(3-(2-chloro-4-((4-cyclopropyl-1-(2,6-dichlorophenyl)-1H-pyrazol-5-yl)methoxy)phenyl)-3-hydroxyazetidin-1-yl)-5-fluoronicotinic acid], for which the EC50 worked out at 3.8 nM in assay [1] (setting [3]) and 4.9 nM in assay [2] (setting [4]).
For the compound `O=C(O)c1ccc(N2CC(O)(c3ccc(OCc4c(-c5c(Cl)cncc5Cl)noc4C4CC4)cc3Cl)C2)nc1` [Example 1, 6-(3-(2-chloro-4-((5-cyclopropyl-3-(3,5-dichloropyridin-4-yl)isoxazol-4-yl)methoxy)phenyl)-3-hydroxyazetidin-1-yl)nicotinic acid], the results for the EC50 in assay [1] (setting [3]) and in assay [2] (setting [4]) were 6.1 nM and 95 nM, respectively.
For `O=C(O)c1cnc(N2CC(O)(c3ccc(OCc4c(-c5c(Cl)cncc5Cl)noc4C4CC4)cc3Cl)C2)c(F)c1` [Example 10, 6-(3-(2-chloro-4-((5-cyclopropyl-3-(3,5-dichloropyridin-4-yl)isoxazol-4-yl)methoxy)phenyl)-3-hydroxyazetidin-1-yl)-5-fluoronicotinic acid] the same measures were 3.4 nM and 6.4 nM.
For `O=C(O)c1cc(N2CC(O)(c3ccc(OCc4c(-c5c(Cl)cccc5Cl)noc4C4CC4)cc3Cl)C2)nc(C(F)(F)F)c1` [Comparative Compound 3, reference compound] the same measures were 47 nM and 131 nM.
The like results for `O=C(O)c1ccc(N2CC(O)(c3ccc(OCc4c(-c5c(Cl)cccc5Cl)noc4C4CC4)cc3Cl)C2)nc1` [Example 2, 6-(3-(2-chloro-4-((5-cyclopropyl-3-(2,6-dichlorophenyl)isoxazol-4-yl)methoxy)phenyl)-3-hydroxyazetidin-1-yl)nicotinic acid] were, in that order, 2.6 nM and 7.1 nM.
For `Cc1cc(N2CC(O)(c3ccc(OCc4c(-c5c(Cl)cccc5Cl)noc4C4CC4)cc3Cl)C2)ncc1C(=O)O` [Example 7, 6-(3-(2-chloro-4-((5-cyclopropyl-3-(2,6-dichlorophenyl)isoxazol-4-yl)methoxy)phenyl)-3-hydroxyazetidin-1-yl)-4-methylnicotinic acid], the EC50 in assay [1] (setting [3]) came to 8.5 nM; in assay [2] (setting [4]) it was 6.7 nM.
The like results for `Cc1nc(N2CC(O)(c3ccc(OCc4c(-c5c(Cl)cccc5Cl)noc4C4CC4)cc3Cl)C2)ccc1C(=O)O` [Example 3, 6-(3-(2-chloro-4-((5-cyclopropyl-3-(2,6-dichlorophenyl)isoxazol-4-yl)methoxy)phenyl)-3-hydroxyazetidin-1-yl)-2-methylnicotinic acid] were, in that order, 4.4 nM and 6.9 nM.
The like results for `Cc1cc(Cl)c(-c2noc(C3CC3)c2COc2ccc(C3(O)CN(c4ncc(C(=O)O)cc4F)C3)c(Cl)c2)c(Cl)c1` [Example 9, 6-(3-(2-chloro-4-((5-cyclopropyl-3-(2,6-dichloro-4-methylphenyl)isoxazol-4-yl)methoxy)phenyl)-3-hydroxyazetidin-1-yl)-5-fluoronicotinic acid] were, in that order, 57 nM and 26 nM.
